Data on nine compounds can be found in patent US12539292B2, “BRM targeting compounds and associated methods of use” (Arvinas Operations, Inc., priority 2018, dated 2026).

For this experiment, the target named is T1, BRM (Homo sapiens, UniProt P51531).
T1 construct: In-Cell Western Screen of BRM Degradation in SW1573 Cells; endogenous in cells; host or cells: SW1573
In words: In-cell Western screen of BRM degradation in SW1573 cells (Dmax and DC50). Type of experiment: cell-based. How it is done:
In-Cell Western Screen of BRM Degradation in SW1573 Cells
To assess BRM degradation (Dmax and DC50), cells were seeded at 8000/well in 96-well black/clear-bottom plates in 180 μL DMEM growth media (containing 1% pen-strep, 1% HEPES and 10% FBS) per well. Plates were incubated overnight to allow adhesion. The next morning cells were treated by adding 20 μL of 10× compound (1% DMSO) to appropriate wells and returned to incubator for overnight (18-20 hours). The final DMSO concentration was 0.1%.
For processing, the plates were removed from incubator, the media was removed, and immediately 200 μL of cold (4° C.) DPBS was added to all wells. DPBS was then removed, and 50 μL of 4% paraformaldehyde (PFA) in DPBS (4° C.) was added to all wells, and the plates were incubated at room temperature for 20 minutes. PFA was then removed, and 200 μL of TBS-T containing 0.5% Triton X-100 was added to all wells, and the plates were incubated at room temperature for 30 minutes. TBS-T containing 0.5% Triton X-100 was then removed, and 50 μL of Li-Cor blocking solution was added, and the plates were incubated at room temperature for a minimum of one hour.
The next day plates were washed three times with TBS-T, 200 μL per well. Fifty (50) μL of secondary antibody cocktail in LI-COR blocking solution (anti-rabbit_800 nm and anti-mouse_680 nm) was added to all wells (diluted 1:5000). The plates were incubated at room temperature for at least one hour while protected from light. The plates were washed twice with TBS-T, 200 μL per well.
To read each plate TBS-T was removed, and each plate was inverted tapped on a paper towel. The plates were read on the LI-COR Odyssey with default intensity settings of 5.0 for both channels. LI-COR images were analyzed with the in-cell Western feature of Image Studio Lite.

The mark [1] stands for this setting: BRM degradation, SW1573 cells, when tested at the top concentration of between 0.3 and 10 μM, read-out: Dmax (%) (% degraded).
[2] abbreviates: BRM degradation, SW1573 cells, read-out: DC50.
Where [3] appears, read: BRM degradation, SW1573 cells, Table 2D, read-out: **Dmax (%) (% degraded).
Where [4] appears, read: BRM degradation, SW1573 cells, Table 2D, read-out: *DC50.

Like-named read-outs stand apart in the source and are kept apart here.

T1 sequence (P51531 whole entry): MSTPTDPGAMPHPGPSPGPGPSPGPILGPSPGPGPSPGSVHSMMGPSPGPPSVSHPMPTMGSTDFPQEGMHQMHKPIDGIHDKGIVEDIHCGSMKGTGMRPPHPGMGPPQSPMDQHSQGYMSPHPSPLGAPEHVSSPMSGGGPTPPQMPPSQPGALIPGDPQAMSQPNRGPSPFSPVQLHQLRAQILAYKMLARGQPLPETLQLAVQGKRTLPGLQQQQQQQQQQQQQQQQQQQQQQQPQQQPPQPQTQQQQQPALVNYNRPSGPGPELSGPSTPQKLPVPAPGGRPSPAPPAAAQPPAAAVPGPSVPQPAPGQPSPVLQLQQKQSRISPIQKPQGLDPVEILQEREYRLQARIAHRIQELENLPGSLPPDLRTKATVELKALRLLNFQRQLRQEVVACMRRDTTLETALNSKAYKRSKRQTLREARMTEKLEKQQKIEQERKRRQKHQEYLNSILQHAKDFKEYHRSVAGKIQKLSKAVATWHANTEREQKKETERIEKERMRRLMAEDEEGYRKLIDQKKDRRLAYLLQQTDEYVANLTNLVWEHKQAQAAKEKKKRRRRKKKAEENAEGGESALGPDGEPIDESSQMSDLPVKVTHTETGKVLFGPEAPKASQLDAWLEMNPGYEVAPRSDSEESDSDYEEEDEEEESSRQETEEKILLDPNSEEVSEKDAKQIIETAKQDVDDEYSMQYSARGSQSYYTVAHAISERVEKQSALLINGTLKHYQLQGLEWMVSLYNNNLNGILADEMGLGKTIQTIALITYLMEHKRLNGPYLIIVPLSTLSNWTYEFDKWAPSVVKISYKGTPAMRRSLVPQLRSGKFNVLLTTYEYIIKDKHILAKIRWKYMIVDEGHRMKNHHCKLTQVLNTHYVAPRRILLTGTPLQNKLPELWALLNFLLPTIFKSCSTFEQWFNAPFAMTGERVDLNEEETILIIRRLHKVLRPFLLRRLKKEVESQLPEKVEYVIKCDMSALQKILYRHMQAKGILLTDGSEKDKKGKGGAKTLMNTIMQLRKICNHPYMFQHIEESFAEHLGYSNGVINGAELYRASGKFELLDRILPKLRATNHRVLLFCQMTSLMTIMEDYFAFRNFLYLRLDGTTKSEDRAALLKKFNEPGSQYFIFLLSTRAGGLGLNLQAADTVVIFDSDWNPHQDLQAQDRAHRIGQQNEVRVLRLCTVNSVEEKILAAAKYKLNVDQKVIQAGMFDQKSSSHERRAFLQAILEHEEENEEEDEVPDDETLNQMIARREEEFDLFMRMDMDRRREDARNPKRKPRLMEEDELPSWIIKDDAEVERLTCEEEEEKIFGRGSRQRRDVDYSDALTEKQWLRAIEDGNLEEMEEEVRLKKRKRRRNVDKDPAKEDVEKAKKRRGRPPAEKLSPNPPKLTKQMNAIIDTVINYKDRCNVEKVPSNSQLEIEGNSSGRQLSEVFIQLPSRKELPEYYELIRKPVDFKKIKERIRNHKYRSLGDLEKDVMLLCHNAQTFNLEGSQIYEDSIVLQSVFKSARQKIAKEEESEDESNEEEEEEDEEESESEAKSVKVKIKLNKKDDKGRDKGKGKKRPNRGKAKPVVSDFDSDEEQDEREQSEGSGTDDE

What is called Dmax is the greatest extent of degradation seen. As for `Cc1ncsc1-c1ccc(CNC(=O)[C@@H]2C[C@@H](O)CN2C(=O)[C@H](C(C)C)N2Cc3ccccc3C2=O)c(OCCOCCOCCn2cc(-c3cc(-c4ccccc4O)nnc3N)cn2)c1` [compound 21, (2S,4R)-N-(2-(2-(2-(2-(4-(3-amino-6-(2-hydroxyphenyl)pyridazin-4-yl)-1H-pyrazol-1-yl)ethoxy)ethoxy)ethoxy)-4-(4-methylthiazol-5-yl)benzyl)-4-hydroxy-1-((S)-3-methyl-2-(1-oxoisoindolin-2-yl)butanoyl)pyrrolidine-2-carboxamide], under setting [1], the Dmax was less than 50%.

The term DC50 denotes the concentration at which degradation of the target reaches its halfway point. Consider `Cc1ncsc1-c1ccc([C@@H](COCC2CCOCC2)NC(=O)[C@@H]2C[C@@H](O)CN2C(=O)[C@H](c2cc(OCCN3CCN(CCOc4cc(N5C6CCC5CN(c5cc(-c7ccccc7O)nnc5N)C6)ccn4)CC3)no2)C(C)C)cc1` [compound 272, (2S,4R)-1-((2S)-2-(3-(2-(4-(2-((4-(3-(3-amino-6-(2-hydroxyphenyl)pyridazin-4-yl)-3,8-diazabicyclo[3.2.1]octan-8-yl)pyridin-2-yl)oxy)ethyl)piperazin-1-yl)ethoxy)isoxazol-5-yl)-3-methylbutanoyl)-4-hydroxy-N-((S)-1-(4-(4-methylthiazol-5-yl)phenyl)-2-((tetrahydro-2H-pyran-4-yl)methoxy)ethyl)pyrrolidine-2-carboxamide], for which, under setting [2], the DC50 was greater than 0.03 µM. On to `CC(C)[C@@H](C(=O)N1C[C@H](O)C[C@H]1C(=O)N[C@@H](C)c1ccc(-n2ccnc2N)cc1)c1cc(N2CCC(CN3CCC(O[C@H]4C[C@H](Oc5cc(N6C7CCC6CN(c6cc(-c8ccccc8O)nnc6N)C7)ccn5)C4)CC3)CC2)no1` [compound 621, (2S,4R)-N-((S)-1-(4-(2-amino-1H-imidazol-1-yl)phenyl)ethyl)-1-((2R)-2-(3-(4-((4-((1r,3r)-3-((4-(3-(3-amino-6-(2-hydroxyphenyl)pyridazin-4-yl)-3,8-diazabicyclo[3.2.1]octan-8-yl)pyridin-2-yl)oxy)cyclobutoxy)piperidin-1-yl)methyl)piperidin-1-yl)isoxazol-5-yl)-3-methylbutanoyl)-4-hydroxypyrrolidine-2-carboxamide], for which the Dmax under setting [3] is greater than 75%. In addition, the DC50 under setting [4] was less than 0.0025 µM. For the compound `Cc1ncsc1-c1ccc([C@H](C)NC(=O)[C@@H]2C[C@@H](OP(=O)(O)O)CN2C(=O)[C@@H](c2cc(OCCN3CCC(O[C@H]4C[C@H](Oc5cc(N6C7CCC6CN(c6cc(-c8ccccc8OP(=O)(O)O)nnc6N)C7)ccn5)C4)CC3)no2)C(C)C)cc1` [compound 517, (3R,5S)-1-((2R)-2-(3-(2-(4-((1r,3R)-3-((4-(3-(3-amino-6-(2-(phosphonooxy)phenyl)pyridazin-4-yl)-3,8-diazabicyclo[3.2.1]octan-8-yl)pyridin-2-yl)oxy)cyclobutoxy)piperidin-1-yl)ethoxy)isoxazol-5-yl)-3-methylbutanoyl)-5-(((S)-1-(4-(4-methylthiazol-5-yl)phenyl)ethyl)carbamoyl)pyrrolidin-3-yl dihydrogen phosphate], under “BRM degradation, read-out: BRM DC50”, the DC50 was less than 0.0025 µM. The Dmax (SW1573, % degraded, when tested at the top concentration of between 0.3 and 10 μM, read-out: BRM Dmax (%)) was greater than 75%. Take `Cc1ncsc1-c1ccc([C@H](C)NC(=O)[C@@H]2C[C@@H](O)CN2C(=O)[C@@H](NC(=O)Cc2ccc(N3CCN(CCO[C@H]4C[C@H](Oc5cc(N6C7CCC6CN(c6cc(-c8ccccc8O)nnc6N)C7)ccn5)C4)CC3)nc2)C(C)(C)C)cc1` [compound 58, (2S,4R)-1-((2S)-2-(2-(6-(4-(2-((1r,3r)-3-((4-(3-(3-amino-6-(2-hydroxyphenyl)pyridazin-4-yl)-3,8-diazabicyclo[3.2.1]octan-8-yl)pyridin-2-yl)oxy)cyclobutoxy)ethyl)piperazin-1-yl)pyridin-3-yl)acetamido)-3,3-dimethylbutanoyl)-4-hydroxy-N-((S)-1-(4-(4-methylthiazol-5-yl)phenyl)ethyl)pyrrolidine-2-carboxamide]: under setting [2], the DC50 is greater than 0.03 µM. Moreover, under setting [1], the Dmax lay in the range of 50 to 75%. In the case of `Cc1ncsc1-c1ccc([C@H](C)NC(=O)[C@@H]2C[C@@H](O)CN2C(=O)[C@H](c2cc(OCCOCCOCCCCN3CCC4(CCN(c5cc(-c6ccccc6O)nnc5N)CC4)C3)no2)C(C)C)cc1` [compound 73, (2S,4R)-1-((S)-2-(3-(2-(2-(4-(8-(3-amino-6-(2-hydroxyphenyl)pyridazin-4-yl)-2,8-diazaspiro[4.5]decan-2-yl)butoxy)ethoxy)ethoxy)isoxazol-5-yl)-3-methylbutanoyl)-4-hydroxy-N-((S)-1-(4-(4-methylthiazol-5-yl)phenyl)ethyl)pyrrolidine-2-carboxamide], the DC50 under setting [2] is greater than 0.03 µM. `Cc1ncsc1-c1ccc([C@@H](NC(=O)[C@@H]2C[C@@H](O)CN2C(=O)[C@H](c2cc(N3CCC(CN4CCC(O[C@H]5C[C@H](Oc6cc(N7C8CCC7CN(c7cc(-c9ccccc9O)nnc7N)C8)ccn6)C5)CC4)CC3)no2)C(C)C)C(=O)N(C)C2CCC2)cc1` [compound 611, (2S,4R)-1-((2S)-2-(3-(4-((4-((1r,3r)-3-((4-(3-(3-amino-6-(2-hydroxyphenyl)pyridazin-4-yl)-3,8-diazabicyclo[3.2.1]octan-8-yl)pyridin-2-yl)oxy)cyclobutoxy)piperidin-1-yl)methyl)piperidin-1-yl)isoxazol-5-yl)-3-methylbutanoyl)-N-((R)-2-(cyclobutyl(methyl)amino)-1-(4-(4-methylthiazol-5-yl)phenyl)-2-oxoethyl)-4-hydroxypyrrolidine-2-carboxamide]: the DC50 under setting [4] was greater than 0.03 µM. In the case of `Cc1nccn1-c1ccc([C@H](C)NC(=O)[C@@H]2C[C@@H](O)CN2C(=O)[C@H](c2cc(N3CCC(O[C@H]4C[C@H](Oc5cc(N6C7CCC6CN(c6cc(-c8ccccc8O)nnc6N)C7)ccn5)C4)CC3)no2)C(C)C)cc1` [compound 600, (2S,4R)-1-((2S)-2-(3-(4-((1r,3S)-3-((4-(3-(3-amino-6-(2-hydroxyphenyl)pyridazin-4-yl)-3,8-diazabicyclo[3.2.1]octan-8-yl)pyridin-2-yl)oxy)cyclobutoxy)piperidin-1-yl)isoxazol-5-yl)-3-methylbutanoyl)-4-hydroxy-N-((S)-1-(4-(2-methyl-1H-imidazol-1-yl)phenyl)ethyl)pyrrolidine-2-carboxamide], under setting [4], the DC50 is greater than 0.03 µM.

With `Cc1ncsc1-c1ccc([C@H](C)NC(=O)[C@@H]2C[C@@H](O)CN2C(=O)[C@@H](c2cc(N3CCC(CN4CCC(COc5cc(N6C7CCC6CN(c6cc(-c8ccccc8O)nnc6N)C7)ccn5)CC4)CC3)no2)C(C)C)cc1` [compound 603, (2S,4R)-1-((2R)-2-(3-(4-((4-(((4-(3-(3-amino-6-(2-hydroxyphenyl)pyridazin-4-yl)-3,8-diazabicyclo[3.2.1]octan-8-yl)pyridin-2-yl)oxy)methyl)piperidin-1-yl)methyl)piperidin-1-yl)isoxazol-5-yl)-3-methylbutanoyl)-4-hydroxy-N-((S)-1-(4-(4-methylthiazol-5-yl)phenyl)ethyl)pyrrolidine-2-carboxamide], the Dmax under setting [3] is greater than 75%. For the same compound, under setting [4], the DC50 is less than 0.0025 µM.
